According to patent US10722484B2, “Methods of cancer treatment” (K-Gen, Inc., priority 2016, dated 2020):

Experiments:
[1] = system: leukemia inhibitory factor (LIF); assay: Western blot analysis of PKC signaling pathway elements in A549 cells; format: cell-based; details: for protein levels of the leukemia inhibitory factor (LIF): Western blot, concentrations of Table 8 (K101A 0.1, 0.5, […]; K101E […]; K102 0.1, 0.5 μM; K103 0.01 μM; Ref1 1 μM; Ref2 0.01 μM)
Procedure: (§1) Cancer cells (2-8 million cells) were seeded in 10 cm dishes and grown overnight. For A549 lung cancer cell line, about 3 million cells were seeded. Cells were then treated with different drugs at concentrations described in Table 8 for a period of time up to 48 hours. Cells were lysed in 0.3-0.5 mL of RIPA buffer (Sigma) supplemented with protease inhibitors (Roche) and phosphatase inhibitors (Sigma). Lysates were assayed for protein concentration using BCA kit (Pierce). Normalized amount of lysates (20-30 μg protein/lane) were run on 4-12% NuPage gel (Life Technologies) and the proteins were transferred to the PVDF or nitrocellulose membrane using iBlot® Transfer Stack (Life Technologies). The membranes were probed with primary antibodies shown in Table 9 at 4° C. overnight after blocking with 1×TBST containing 5% non-fat milk. Antibodies from other vendors could also be used in Western blot analysis. After washing 5 times with 1×TBS containing 0.1% Tween20, the membranes were probed with 2nd antibodies Anti-mouse IgG Dylight 800 conjugate or Anti-rabbit IgG DyLight 680 conjugate (1:10000; Cell signaling or similar IR 2nd antibodies from different vendors) at room temperature for one hour. After washing 5 times, the membranes were scanned using Odyssey® Imaging System (Licor Biosciences).

phospho-PKC (pan) = assay: as above; format: cell-based; details: for phospho-PKC (pan) levels: 48 hours, K103, K102 at 0.5 μM, K101A at […]
Procedure: as §1

[2] = system: pancreatic, lung, colon and leukemia cancer cell lines; assay: Proliferation assay, summary over the panel of cancer cell lines; format: cell-based; details: comparison with prostratin
Procedure: PKC activator compounds were tested in a panel of K-RAS mutant pancreatic, lung, and colon cancer cell lines, as well as a number of leukemia cell lines having either mutant K-RAS or N-RAS.
The dose range for most compounds was 4.6 nM-30 μM. The dose ranges for some compounds were adjusted downward to 0.46 nM-3 μM or 0.08 nM-0.5 μM or 0.03 nM-0.2 μM. […] The results are shown in Tables 3-6 for pancreatic cancer, lung cancer, colon/gastric cancer, and leukemia.

A549 cells = assay: Soft agar colony formation assay; format: cell-based; details: for number of colonies formed in soft agar: 7-10 days, 9-point 3-fold dilution series
Procedure: To prepare a base agar layer (0.6%), melted 1.2% agar solution was mixed 1:1 (v/v) with 2×DMEM/20% FBS medium in a tube by inverting several times, and 50 μL of the mixture was immediately transferred to a well in a 96-well flat-bottom microplate. The plate was placed at 4° C. for 30 minutes to allow the base agar layer to solidify. Then, the cell agar layer (agar 0.4%) was prepared by transferring 75 μL of the cell and agar mixture containing 1:1:1 (v/v/v) of 1.2% agar solution, 2×DMEM/20% FBS and cell suspension (0.4-4×10E5/mL) to each well of the plates so that each well contained 1000-10000 cells per well. The plates were placed at 4° C. for 15 minutes and then 75 μL of media was added to each well. After incubating the plates overnight in a CO2 incubator, 50 μL of media with or without 5× final concentrations of compounds were added to each well. Each compound was tested in 9-point 3-fold dilution series. The plates were incubated for 7-10 days at 37° C. At the end of incubation period, 28 μL of Calcein AM solution (5 μM) was added to the center of each well. The plates were incubated at 37° C. for 45 minutes before scanning on Acumen (TTP Labtech). Each compound was tested in triplicates. Data was analyzed and compound EC50s were calculated using GraphPad Prism 5.

[3] = system: A549 lung cancer cell line; assay: Combination viability/proliferation assays (384-well IC50 ratio, 96-well MacSynergy II); format: cell-based; details: PKC activator compounds (K101A, K101E, K102)
[4] = system: Mino (Mantle cell lymphoma); assay: Combination viability/proliferation assays; details: Homo sapiens, MINO, read-out: inhibition on proliferation, alone
Procedure: Briefly, cells at density of 1,000-10,000 cells/well in 96-well plates or 200-1600 cells/well in 384-well plates were seeded and incubated at 37° C. for 24 hours before addition of compounds. A series of 9 different concentrations of compound stocks (500×) were prepared by 3-fold serial dilutions in DMSO. […] After 96 hours of incubation, 35 μL or 50 μL of CellTiter Glo reagent (Promega) was added to each well and luminescence was measured after 10 minutes using EnVision (PerkinElmer). Luminescence from cells treated with DMSO alone was set as Max and % of inhibition was calculated as follows: Inhibition %=(Max-Sample value)/Max*100. Data were analyzed using XLfit software (ID Business Solutions Ltd.) or GraphPad software and IC50, relative IC50, and % of top inhibition were calculated.
Various drugs or compounds (Table 10) were screened and assayed in 384-well plates as 9-point 3-fold dilution series alone and in combination with 2-3 doses of the specified PKC activator compounds (e.g., K101A, K101E, and K102). The top concentration for the tested PKC activator compound was set at roughly the IC50 when the same testing compound was used as a single agent assayed in the same cell line. The next dose was either 3-fold or 10-fold dilution from the top concentration.
The PKC activating agents (e.g., K101A, K101E, and K102) in combination with other chemotherapeutic agents, including standard chemotherapies and certain chemotherapeutic agents targeting certain cell signaling pathways, were also examined on cancer cells other than lung cancer cells.

Compound | protein levels of the leukemia inhibitory factor (LIF) [1] | phospho-PKC (pan) levels (phospho-PKC (pan)) | potency in proliferation inhibition relative to prostratin [2] | number of colonies formed in soft agar (A549 cells) | rank of potency in soft agar assay (A549 cells; order K103, K102, K101A, K101E) | effect in combination with the PKC activator compounds in inhibiting the growth of A549 cells [3] | LIF protein level ([1]; 0.5 μM) | phospho-PKC (pan) level (phospho-PKC (pan); 0.5 μM) | inhibition at 0.1 µM [4] [%] | inhibition at 0.001 µM [4] [%]
CCCCCCCCCCCCCC(=O)O[C@@H]1[C@@H](C)[C@@]2(O)[C@@H](C=C(CO)C[C@]3(O)C(=O)C(C)=C[C@@H]23)[C@@H]2C(C)(C)[C@]12OC(C)=O [Compound K103, 12-O-Tetradecanoylphorbol-13-acetate] | did not affect | reduction | more potent | reduced the number of colonies formed by A549 cells in a dose-dependent manner | Most potent | – | – | – | – | –
CC(=O)OCC1=CC2C3C(C)(C)C3(OC(C)=O)CC(C)C2(O)C2C=C(C)C(=O)C2(O)C1 (stereo not shown) [Compound K101E] | did not affect | – | – | reduced the number of colonies formed by A549 cells in a dose-dependent manner | – | – | – | – | – | –
CC(=O)O[C@H]1C(=O)[C@@]2(C)[C@H]([C@H](OC(=O)c3ccccc3)[C@]3(O)C[C@H](OC(=O)[C@H](O)[C@@H](NC(=O)c4ccccc4)c4ccccc4)C(C)=C1C3(C)C)[C@]1(OC(C)=O)CO[C@@H]1C[C@@H]2O [Paclitaxel] | – | – | – | – | – | insignificant synergism or antagonism | – | – | – | –
CC(=O)O[C@@]12C[C@@H](C)[C@@]3(O)[C@@H](C=C(CO)C[C@]4(O)C(=O)C(C)=C[C@@H]34)[C@@H]1C2(C)C [Compound K101A, 12-deoxyphorbol 13-acetate] | dose-dependent reduction | reduction | – | reduced the number of colonies formed by A549 cells in a dose-dependent manner | – | – | lowered | without affecting | < 10 | –
C/C=C(/C)C(=O)O[C@H]1C(C)=C[C@]23C(=O)[C@@H](C=C(CO)[C@@H](O)[C@]12O)[C@H]1[C@@H](C[C@H]3C)C1(C)C [Compound K102, ingenol-3-angelate] | did not affect | reduction | more potent | reduced the number of colonies formed by A549 cells in a dose-dependent manner | – | – | – | – | – | < 10
